Drawing on BindingDB's records for patent US20230339890 (Kineta, 2023), this text covers IC50 for four molecules.

The target of this test is T1, Lanosterol 14-alpha demethylase (Homo sapiens, UniProt Q16850).
T1 sequence (Q16850 whole entry): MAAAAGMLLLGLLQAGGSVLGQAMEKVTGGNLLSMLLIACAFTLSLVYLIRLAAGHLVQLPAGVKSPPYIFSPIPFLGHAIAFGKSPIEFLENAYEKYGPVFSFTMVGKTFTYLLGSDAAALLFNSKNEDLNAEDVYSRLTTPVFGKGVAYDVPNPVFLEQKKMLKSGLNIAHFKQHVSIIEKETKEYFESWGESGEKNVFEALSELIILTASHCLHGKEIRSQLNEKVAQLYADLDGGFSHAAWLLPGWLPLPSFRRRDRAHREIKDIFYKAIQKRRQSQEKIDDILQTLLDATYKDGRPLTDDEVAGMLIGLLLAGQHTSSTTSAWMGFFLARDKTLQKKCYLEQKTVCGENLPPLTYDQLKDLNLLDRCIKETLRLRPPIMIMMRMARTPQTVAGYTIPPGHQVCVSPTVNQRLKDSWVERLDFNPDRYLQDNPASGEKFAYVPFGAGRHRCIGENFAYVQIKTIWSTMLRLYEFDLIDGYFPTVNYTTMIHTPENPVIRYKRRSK
Briefly: Inhibition of CYP51A1. From the text: Method: Recombinant human CYP51A1 (lanosterol-14a-demethylase) enzyme was coexpressed with CYP reductase in bacterial membranes and the fluorescent substrate BOMCC (a nonnatural substrate that causes increases in fluorescence upon CYP51A1-dependent demethylation) was used to obtain 8-point dose concentration-response curves for each compound.
With `CCC(=O)N(CCc1ccc(C(F)(F)F)nc1)C[C@@H](O)c1cccnc1` [US20230339890, Compound 30], the half-inhibitory concentration (IC50) is above 1000 nM.
Molecule `CCC(=O)N(C[C@@H](O)c1cccnc1)C1CCc2cc(Cl)c(Cl)cc2C1` (some centres undefined) [US20230339890, Compound 70] showed a half-maximal inhibitory concentration (IC50) below 100 nM.
Under `CC(C)(C)OC(=O)NCCCCCN(C[C@@H](O)c1cccnc1)C(=O)Cc1ccc(C#N)c(Cl)c1` [US20230339890, Compound 142] stands below 100 nM.
`CC(C)(C)OC(=O)NCCCCN(C[C@@H](O)c1cccnc1)C(=O)Cc1ccc(C(F)(F)F)nc1` [US20230339890, Compound 144] had an IC50 below 100 nM.

Broadly, the IC50 is the concentration at which inhibition is half-maximal. A higher IC50 goes with lower potency.
